{"source": "patent US9738932B2", "about": "“Biomarkers for cardiovascular side-effects induced by cox-2 inhibitory compounds” (FIRALIS SAS, priority 2005, dated 2017)", "system": "INFγ", "experiment": "ELISA of INFγ protein in monkey serum and plasma", "format": "in vivo, cynomolgus monkey (Macaca fascicularis)", "conditions": "monkey #A60055", "from_the_text": "FIG. 7. ELISA confirmation of INFγ protein level in monkey serum and plasma samples.\nThese peripheral biomarkers might allow safe use of cox-2 inhibitory compounds in clinics and selection of cox-2 inhibitory follow-up compounds without cardiovascular toxicity."}
{"smiles": "CS(=O)(=O)c1ccc(C2=C(c3ccccc3)C(=O)OC2)cc1", "note": "[Vioxx®, rofecoxib]", "values": [{"measurement": "INFγ protein expression by ELISA", "value": "Increased expression"}]}
